# Laboratory results as given in US20090012103A1, “SUBSTITUTED HETEROCYCLIC COMPOUNDS” (priority 2007, published 2009).
# Target: wild-type human cardiac sodium channel, hNav1.5 (Homo sapiens, UniProt Q14524)
# Assay: Late INa screening assay (late sodium current, PatchXpress whole cell patch clamp)
# Type: cell-based
# Settings: compound at 10 μM; read-out: Late INa % blk
# Sequence of wild-type human cardiac sodium channel, hNav1.5 (Q14524 whole entry): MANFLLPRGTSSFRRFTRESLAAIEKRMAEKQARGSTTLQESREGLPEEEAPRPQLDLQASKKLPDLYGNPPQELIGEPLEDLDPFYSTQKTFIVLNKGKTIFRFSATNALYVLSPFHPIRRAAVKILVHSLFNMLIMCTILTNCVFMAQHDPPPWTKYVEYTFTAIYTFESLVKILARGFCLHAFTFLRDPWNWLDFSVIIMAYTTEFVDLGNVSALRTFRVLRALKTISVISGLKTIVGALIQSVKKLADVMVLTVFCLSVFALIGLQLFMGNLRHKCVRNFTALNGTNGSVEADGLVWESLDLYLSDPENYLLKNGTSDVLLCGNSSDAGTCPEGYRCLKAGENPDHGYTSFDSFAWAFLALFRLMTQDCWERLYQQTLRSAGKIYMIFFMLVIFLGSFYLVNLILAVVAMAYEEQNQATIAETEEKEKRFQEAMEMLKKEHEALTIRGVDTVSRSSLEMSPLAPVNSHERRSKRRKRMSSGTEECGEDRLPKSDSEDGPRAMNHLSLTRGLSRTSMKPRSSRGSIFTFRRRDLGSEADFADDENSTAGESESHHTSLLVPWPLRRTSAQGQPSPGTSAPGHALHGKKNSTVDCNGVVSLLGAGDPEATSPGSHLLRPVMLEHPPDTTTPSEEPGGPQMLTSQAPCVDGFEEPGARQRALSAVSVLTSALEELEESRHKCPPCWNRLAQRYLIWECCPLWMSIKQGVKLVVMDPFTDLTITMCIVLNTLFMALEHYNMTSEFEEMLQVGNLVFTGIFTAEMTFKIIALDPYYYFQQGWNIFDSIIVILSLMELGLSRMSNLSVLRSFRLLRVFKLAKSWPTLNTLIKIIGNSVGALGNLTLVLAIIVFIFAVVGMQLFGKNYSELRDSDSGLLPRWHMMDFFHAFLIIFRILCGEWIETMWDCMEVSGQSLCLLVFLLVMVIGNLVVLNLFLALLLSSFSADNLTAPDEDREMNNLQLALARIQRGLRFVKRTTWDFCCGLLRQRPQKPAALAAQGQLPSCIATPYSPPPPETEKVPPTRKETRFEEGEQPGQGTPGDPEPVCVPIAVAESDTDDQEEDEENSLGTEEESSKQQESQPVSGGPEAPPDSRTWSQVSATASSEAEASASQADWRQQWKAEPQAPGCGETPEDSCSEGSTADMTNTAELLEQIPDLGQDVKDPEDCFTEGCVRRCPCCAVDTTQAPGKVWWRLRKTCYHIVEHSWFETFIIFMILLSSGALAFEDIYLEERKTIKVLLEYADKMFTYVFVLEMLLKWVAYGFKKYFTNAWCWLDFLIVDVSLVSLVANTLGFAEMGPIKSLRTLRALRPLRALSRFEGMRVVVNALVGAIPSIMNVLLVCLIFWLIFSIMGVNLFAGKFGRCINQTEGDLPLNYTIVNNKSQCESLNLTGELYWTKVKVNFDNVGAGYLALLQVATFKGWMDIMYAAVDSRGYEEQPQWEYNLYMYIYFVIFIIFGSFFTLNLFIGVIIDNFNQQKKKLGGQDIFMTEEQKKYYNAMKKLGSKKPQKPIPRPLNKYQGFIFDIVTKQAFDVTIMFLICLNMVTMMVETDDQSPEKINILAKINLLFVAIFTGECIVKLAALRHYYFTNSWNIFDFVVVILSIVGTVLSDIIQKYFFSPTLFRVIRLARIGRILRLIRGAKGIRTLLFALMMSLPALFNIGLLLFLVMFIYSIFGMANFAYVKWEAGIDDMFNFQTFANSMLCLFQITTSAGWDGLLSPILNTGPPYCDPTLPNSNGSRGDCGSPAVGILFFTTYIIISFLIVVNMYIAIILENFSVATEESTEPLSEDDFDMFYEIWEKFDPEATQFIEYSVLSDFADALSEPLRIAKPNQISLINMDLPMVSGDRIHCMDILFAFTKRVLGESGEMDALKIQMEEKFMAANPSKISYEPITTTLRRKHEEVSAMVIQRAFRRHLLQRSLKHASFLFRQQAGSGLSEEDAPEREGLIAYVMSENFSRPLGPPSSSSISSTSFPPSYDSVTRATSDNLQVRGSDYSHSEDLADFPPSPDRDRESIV
row,Structure (SMILES),inhibition at 10 µM [%]
1,"COC(=O)C1=C(C)Nc2nnnn2C1c1ccc(Br)s1 (stereo not drawn) [PT-522, methyl 7-(5-bromothiophen-2-yl)-5-methyl-4,7-dihydrotetrazolo[1,5-a]pyrimidine-6-carboxylate]",37.7
2,"CC1=C(C(=O)N2CCN(c3ccc(Cl)cc3)CC2)C(c2ccsc2)C2=C(CCCC2=O)N1 (stereo not drawn) [PT-167, 3-(4-(4-chlorophenyl)piperazine-1-carbonyl)-2-methyl-4-(thiophen-3-yl)-4,6,7,8-tetrahydroquinolin-5(1H)-one]",-10
3,"CC1=C(C(=O)OCc2ccccc2)C(c2ccc3ccccc3c2)c2cn[nH]c2N1 (stereo not drawn) [PT-368, benzyl 6-methyl-4-(naphthalen-2-yl)-4,7-dihydro-1H-pyrazolo[3,4-b]pyridine-5-carboxylate]",-4.2
4,"CCCC1=C(C(=O)OCC)C(c2ccsc2)C2=C(CCCC2=O)N1 (stereo not drawn) [PT-148, ethyl 5-oxo-2-propyl-4-(thiophen-3-yl)-1,4,5,6,7,8-hexahydroquinoline-3-carboxylate]",7.6
5,"CC1=C(C(=O)OCc2ccccc2)C(c2c3ccccc3cc3ccccc23)C2=C(CCCC2=O)N1 (stereo not drawn) [PT-334, benzyl 4-(anthracen-9-yl)-2-methyl-5-oxo-1,4,5,6,7,8-hexahydroquinoline-3-carboxylate]",29.9
6,"CC1=C(C(=O)OCc2ccccc2)C(c2ccc(C(F)(F)F)cc2)n2nnnc2N1 (stereo not drawn) [PT-358, benzyl 5-methyl-7-(4-(trifluoromethyl)phenyl)-4,7-dihydrotetrazolo[1,5-a]pyrimidine-6-carboxylate]",7.4
7,"CC1=C(C(=O)OCc2ccccc2)C(c2ccccc2-c2ccccc2C#N)n2nnnc2N1 (stereo not drawn) [PT-390, benzyl 7-(2′-cyanobiphenyl-2-yl)-5-methyl-4,7-dihydrotetrazolo[1,5-a]pyrimidine-6-carboxylate]",20
8,"CCOC(=O)C1=C(C)N(CC(=O)O)c2nnnn2C1c1cccc2ccccc12 (stereo not drawn) [PT-258, 2-(6-(ethoxycarbonyl)-5-methyl-7-(naphthalen-1-yl)tetrazolo[1,5-a]pyrimidin-4(7H)-yl)acetic acid]",1.6
9,"CC1=C(C(=O)OCc2ccccc2)C(c2ccccc2Br)C2=C(CCCC2=O)N1 (stereo not drawn) [PT-329, benzyl 4-(2-bromophenyl)-2-methyl-5-oxo-1,4,5,6,7,8-hexahydroquinoline-3-carboxylate]",54.9
10,"CC1=C(C(=O)OCc2ccccc2)C(c2cnc(N3CCOCC3)s2)n2nnnc2N1 (stereo not drawn) [PT-346, benzyl 5-methyl-7-(2-morpholinothiazol-5-yl)-4,7-dihydrotetrazolo[1,5-a]pyrimidine-6-carboxylate]",23
11,"O=C1OCC2=C1C(c1cccc3ccccc13)c1cn[nH]c1N2 (stereo not drawn) [PT-084, 4-(naphthalen-1-yl)-7,8-dihydro-1H-furo[3,4-e]pyrazolo[3,4-b]pyridin-5(4H)-one]",16.9
12,"CCOC(=O)C1=C(C)NC2=C(C(=O)CC(C)(C)C2)C1c1cccc(C(=O)O)c1 (stereo not drawn) [PT-132, 3-(3-(ethoxycarbonyl)-2,7,7-trimethyl-5-oxo-1,4,5,6,7,8-hexahydroquinolin-4-yl)benzoic acid]",-5.3
13,"CC1=C(C(=O)OC(C)C)C(c2ccc3ccccc3c2)n2nnnc2N1 (stereo not drawn) [PT-020, isopropyl 5-methyl-7-(naphthalen-2-yl)-4,7-dihydrotetrazolo[1,5-a]pyrimidine-6-carboxylate]",47.7
14,"COC(=O)C1=C(C)Nc2nnnn2C1c1sc2ccccc2c1-c1cccc(C(=O)O)c1 (stereo not drawn) [PT-273, 3-(2-(6-(methoxycarbonyl)-5-methyl-4,7-dihydrotetrazolo[1,5-a]pyrimidin-7-yl)benzo[b]thiophen-3-yl)benzoic acid]",14.1
15,"COC(=O)C1=C(C)Nc2nnnn2C1c1cccs1 (stereo not drawn) [PT-513, methyl 5-methyl-7-(thiophen-2-yl)-4,7-dihydrotetrazolo[1,5-a]pyrimidine-6-carboxylate]",10.5
16,"CCOC(=O)C1=C(C(C)=O)C(c2cccc3ccccc23)n2nnnc2N1 (stereo not drawn) [PT-465, ethyl 6-acetyl-7-(naphthalen-1-yl)-4,7-dihydrotetrazolo[1,5-a]pyrimidine-5-carboxylate]",10.5
17,"CCOC(=O)C1=C(C)NC(C)=C(C(=O)OCC)C1c1ccccc1-c1cccc(C#N)c1 [PT-435, diethyl 4-(3′-cyanobiphenyl-2-yl)-2,6-dimethyl-1,4-dihydropyridine-3,5-dicarboxylate]",19.4
18,"COc1ccc(C2C(C(=O)OCc3ccccc3)=C(C)Nc3nnnn32)c2ccccc12 (stereo not drawn) [PT-421, benzyl 7-(4-methoxynaphthalen-1-yl)-5-methyl-4,7-dihydrotetrazolo[1,5-a]pyrimidine-6-carboxylate]",23.5
19,"CCOC(=O)C1=C(C)NC2=C(C(=O)CCC2)C1c1cccnc1Cl (stereo not drawn) [PT-189, ethyl 4-(2-chloropyridin-3-yl)-2-methyl-5-oxo-1,4,5,6,7,8-hexahydroquinoline-3-carboxylate]",0.5

row,Structure (SMILES),inhibition at 10 µM [%]
1,"CCOC(=O)c1ccc(COc2ccccc2C2C(C(=O)OC)=C(C)Nc3nnnn32)cc1 (stereo not drawn) [PT-516, methyl 7-(2-(4-(ethoxycarbonyl)benzyloxy)phenyl)-5-methyl-4,7-dihydrotetrazolo[1,5-a]pyrimidine-6-carboxylate]",20.2
2,"CCOC(=O)C1=C(C)Nc2nnnn2C1c1ccccc1Oc1ccc(C(=O)O)cc1 (stereo not drawn) [PT-291, 4-(2-(6-(ethoxycarbonyl)-5-methyl-4,7-dihydrotetrazolo[1,5-a]pyrimidin-7-yl)phenoxy)benzoic acid]",15.2
3,"CC1=C(C(=O)N2CCc3ccccc3C2)C(c2cccc3ccccc23)C2=C(CCCC2=O)N1 (stereo not drawn) [PT-171, 2-methyl-4-(naphthalen-1-yl)-3-(1,2,3,4-tetrahydroisoquinoline-2-carbonyl)-4,6,7,8-tetrahydroquinolin-5(1H)-one]",20.2
4,"CCOC(=O)C1=C(C)NC2=C(C(=O)CCC2)C1c1ccccc1-c1ccc(C(N)=O)cc1 (stereo not drawn) [PT-455, ethyl 4-(4′-carbamoylbiphenyl-2-yl)-2-methyl-5-oxo-1,4,5,6,7,8-hexahydroquinoline-3-carboxylate]",9
5,"CC1=C(C(=O)OCc2ccccc2)C(c2sccc2B(O)O)n2nnnc2N1 (stereo not drawn) [PT-256, 2-(6-(benzyloxycarbonyl)-5-methyl-4,7-dihydrotetrazolo[1,5-a]pyrimidin-7-yl)thiophen-3-ylboronic acid]",25.7
6,"CCOC(=O)C1=C(C)NC2=C(C(=O)CCC2(C)C)C1c1ccc(Cl)s1 (stereo not drawn) [PT-146, ethyl 4-(5-chlorothiophen-2-yl)-2,8,8-trimethyl-5-oxo-1,4,5,6,7,8-hexahydroquinoline-3-carboxylate]",31.2
7,"CC1=C(C(=O)NNC(=O)c2ccccc2)C(c2cccc3ccccc23)n2nnnc2N1 (stereo not drawn) [PT-069, N′-benzoyl-5-methyl-7-(naphthalen-1-yl)-4,7-dihydrotetrazolo[1,5-a]pyrimidine-6-carbohydrazide]",11.5
8,"CCOC(=O)C1=C(C)Nc2nnnn2C1c1ccccc1-c1ccc(C#N)cc1 (stereo not drawn) [PT-503, ethyl 7-(4′-cyanobiphenyl-2-yl)-5-methyl-4,7-dihydrotetrazolo[1,5-a]pyrimidine-6-carboxylate]",29.2
9,"CC1=C(C(=O)O[C@@H](C)c2ccccc2)C(c2cc3ccccc3o2)n2nnnc2N1 (stereo partly drawn) [PT-058, (S)-1-phenylethyl 7-(benzofuran-2-yl)-5-methyl-4,7-dihydrotetrazolo[1,5-a]pyrimidine-6-carboxylate]",71.4
10,"CCOC(=O)C1=C(C)Nc2nnnn2C1c1cccc(Oc2cccc(C(=O)O)c2)c1 (stereo not drawn) [PT-274, 3-(3-(6-(ethoxycarbonyl)-5-methyl-4,7-dihydrotetrazolo[1,5-a]pyrimidin-7-yl)phenoxy)benzoic acid]",16.8
11,"O=C1OCC2=C1C(c1cccc3ccccc13)c1cnn(-c3ccccc3)c1N2 (stereo not drawn) [PT-082, 4-(naphthalen-1-yl)-1-phenyl-7,8-dihydro-1H-furo[3,4-e]pyrazolo[3,4-b]pyridin-5(4H)-one]",43.1
12,"CCOC(=O)C1=C(C)Nc2[nH]ncc2C1c1cccc(Oc2ccccc2)c1 (stereo not drawn) [PT-470, ethyl 6-methyl-4-(3-phenoxyphenyl)-4,7-dihydro-1H-pyrazolo[3,4-b]pyridine-5-carboxylate]",26
13,"CCOC(=O)C1=C(C)Nc2nnnn2C1c1ccccc1-c1cccnc1 (stereo not drawn) [PT-459, ethyl 5-methyl-7-(2-(pyridin-3-yl)phenyl)-4,7-dihydrotetrazolo[1,5-a]pyrimidine-6-carboxylate]",10.3
14,"CC1=C(C(=O)OCc2ccccc2)[C@@H](c2ccccc2-c2cccc(F)c2)n2nnnc2N1 [PT-240, (R)-benzyl 7-(3′-fluorobiphenyl-2-yl)-5-methyl-4,7-dihydrotetrazolo[1,5-a]pyrimidine-6-carboxylate]",85
15,"Cc1nn(-c2ccccc2)c2c1C(c1cccc3ccccc13)C1=C(COC1=O)N2 (stereo not drawn) [PT-083, 3-methyl-4-(naphthalen-1-yl)-1-phenyl-7,8-dihydro-1H-furo[3,4-e]pyrazolo[3,4-b]pyridin-5(4H)-one]",30
16,"CC1=C(C(=O)OCc2ccccc2)C(c2ccccc2-c2ccccc2C)n2nnnc2N1 (stereo not drawn) [PT-344, benzyl 5-methyl-7-(2′-methylbiphenyl-2-yl)-4,7-dihydrotetrazolo[1,5-a]pyrimidine-6-carboxylate]",44.6
17,"CC1=C(C(=O)OCc2ccccc2)C(c2ccccc2-c2cccc(C)c2)n2nnnc2N1 (stereo not drawn) [PT-350, benzyl 5-methyl-7-(3′-methylbiphenyl-2-yl)-4,7-dihydrotetrazolo[1,5-a]pyrimidine-6-carboxylate]",63.2
18,"CC1=C(C(=O)OCc2ccccc2)C(c2cncs2)n2nnnc2N1 (stereo not drawn) [PT-365, benzyl 5-methyl-7-(thiazol-5-yl)-4,7-dihydrotetrazolo[1,5-a]pyrimidine-6-carboxylate]",26.9
19,"COCCOc1ccc(C2C(C(=O)OCc3ccccc3)=C(C)Nc3nnnn32)cc1 (stereo not drawn) [PT-406, benzyl 7-(4-(2-methoxyethoxy)phenyl)-5-methyl-4,7-dihydrotetrazolo[1,5-a]pyrimidine-6-carboxylate]",20.3

# Same assay, conditions: read-out: Late INa % blk
row,Structure (SMILES),inhibition at 10 µM [%]
1,"CCOC(=O)C1=C(C(C)C)Nc2nnnn2C1c1cccc2ccccc12 (stereo not drawn) [PT-013, ethyl 5-isopropyl-7-(naphthalen-1-yl)-4,7-dihydrotetrazolo[1,5-a]pyrimidine-6-carboxylate]",45.4
